Experimental data reported in US4323550A, “Halogenohydrates of N,N-disubstituted derivatives of piperazine having anticariogenic properties” (priority 1976, dated 1982).

How the values were obtained:
[1] = Acute oral toxicity in mice; type: in vivo; details: in vivo, mouse, read-out: dose up to which no symptom occurs
Protocol: (§1) By way of example there are described below the comparative tests made on difluorohydrate of N,N'-di(hydroxyethyl) piperazine and on fluorohydrate of hexadecylamine or "ELMEX 242".
(§2) The acute toxidity was studies in rats and in mice.
(§3) The animals came from a homogeneous breed. The mice weighed between 19 and 21 g and the rats weighed from 120 to 140 g. The mice were grouped in lots of 10 and the rats in lots of 8.
(§4) The administrations took place orally at a volume of 0.5 ml per 20 g of mouse and 1 ml per 100 g of rat. The LD50 was determined by the method of Lichfield and Wilcoxon.
(§5) As regards the difluorohydrate of N,N'-di(hydroxyethyl) piperazine, the administered solution was prepared by diluting the mother solution to 65.4%, the dilutions being made after having weighed this solution. The administered dose is expressed by weight, taking account of the indicated strength of this solution.
(§6) For the solid "ELMEX 242" an aqueous suspension was prepared with the aid of solubilizing agents (e.g. Tween-polyoxyethylene sorbitan monolaurate). A very thick suspension is then obtained which tends to foam heavily, is difficult to get into the esophageal sound, and the determination of its volume is rendered difficult by the foam.
(§7) The results obtained with the "ELMEX" are therefore rather approximate.

[2] = system: mice; experiment: Acute oral toxicity in mice; type: in vivo
Protocol: as §1, §2, §3, §4, §5, §6, §7

[3] = pH of the difluorohydrate solution; type: physicochemical; details: solution titering 1.23% fluorine
Protocol: The radioactive solutions are obtained by dissolving 69 mg of the difluorohydrate and 81.3 mg of NaF, respectively, in 1 and 3 ml of fluorine 18 solution without entrainer. Thus solutions titering 1.23% fluorine are obtained.
As the difluorohydrate solution is already at pH=3.5, it is sufficient to acidify the NaF solution by addition of about 0.2 ml hydrochloric acid 6 M, to 3 ml of the radioactive solution.

[4] = Ionizable fluorine content; type: physicochemical

SMILES: OCCN1CCN(CCO)CC1 [DIFLUOROHYDRATE OF N,N'-DI(HYDROXY-ETHYL) PIPERAZINE]
- NOAEL at 240 h [1]: ≥ 400 mg/kg
- toxicity compared with ELMEX 242 ([2]; conclusion from mouse and rat, solution versus suspension): clearly more toxic than "ELMEX 242"
- course: death and recovery ([2]; mouse): Death occurs after one hour at the highest doses.
- symptoms ([2]; mouse): At higher doses the mice are totally immobile. They show light trembling, but over the entire body, also diarrhea.
- Deaths ([2]; mouse, 200 mg/kg, D + 1, 10 per lot): 0
- Deaths ([2]; mouse, 200 mg/kg, D + 2, 10 per lot): 0
- Deaths ([2]; mouse, 200 mg/kg, D + 5, 10 per lot): 0
- Deaths ([2]; mouse, 200 mg/kg, D + 10, 10 per lot): 0
- Deaths ([2]; mouse, 300 mg/kg, D + 1, 10 per lot): 0
- Deaths ([2]; mouse, 300 mg/kg, D + 2, 10 per lot): 0
- Deaths ([2]; mouse, 300 mg/kg, D + 5, 10 per lot): 0
- Deaths ([2]; mouse, 300 mg/kg, D + 10, 10 per lot): 0
- Deaths ([2]; mouse, 400 mg/kg, D + 1, 10 per lot): 2
- Deaths ([2]; mouse, 400 mg/kg, D + 2, 10 per lot): 3
- Deaths ([2]; mouse, 400 mg/kg, D + 5, 10 per lot): 3
- Deaths ([2]; mouse, 400 mg/kg, D + 10, 10 per lot): 3
- Deaths ([2]; mouse, 500 mg/kg, D + 1, 10 per lot): 3
- Deaths ([2]; mouse, 500 mg/kg, D + 2, 10 per lot): 5
- Deaths ([2]; mouse, 500 mg/kg, D + 5, 10 per lot): 5
- Deaths ([2]; mouse, 500 mg/kg, D + 10, 10 per lot): 5
- Deaths ([2]; mouse, 600 mg/kg, D + 1, 10 per lot): 4
- Deaths ([2]; mouse, 600 mg/kg, D + 2, 10 per lot): 7
- Deaths ([2]; mouse, 600 mg/kg, D + 5, 10 per lot): 8
- Deaths ([2]; mouse, 600 mg/kg, D + 10, 10 per lot): 8
- Deaths ([2]; mouse, 700 mg/kg, D + 1, 10 per lot): 9
- Deaths ([2]; mouse, 700 mg/kg, D + 2, 10 per lot): 10
- Deaths ([2]; mouse, 700 mg/kg, D + 5, 10 per lot): 10
- Deaths ([2]; mouse, 700 mg/kg, D + 10, 10 per lot): 10
- Deaths ([2]; mouse, 800 mg/kg, D + 1, 10 per lot): 7
- Deaths ([2]; mouse, 800 mg/kg, D + 2, 10 per lot): 8
- Deaths ([2]; mouse, 800 mg/kg, D + 5, 10 per lot): 9
- Deaths ([2]; mouse, 800 mg/kg, D + 10, 10 per lot): 9
- Deaths ([2]; mouse, 1000 mg/kg, D + 1, 10 per lot): 10
- Deaths ([2]; mouse, 1000 mg/kg, D + 2, 10 per lot): 10
- Deaths ([2]; mouse, 1000 mg/kg, D + 5, 10 per lot): 10
- Deaths ([2]; mouse, 1000 mg/kg, D + 10, 10 per lot): 10
- persistence of the ill state ([2]; mouse, doses above 400 mg/kg): at least 24 hours
- time to onset of coma ([2]; mouse, doses above 400 mg/kg): about 45 minutes
- pH of the solution [3]: 3.5
- ionizable fluorine content [4]: 15.18%
